Row | SMILES | melting point [°C]
1 | O=C1C2=C(CCCC2)C(=O)N1c1cc([N+](=O)[O-])ccc1F | 154 to 156
2 | COC(=O)C[C@H]1C[C@H](C(=O)O)Nc2cc(Cl)cc(Cl)c21 (relative stereo) | 181 to 182
3 | NNc1ccc2c(=O)[nH]ccc2c1 | 270
4 | COc1nc(-c2ccc3c(c2)OCO3)c2cc3c(cc2n1)OCO3 | 216 to 223
5 | CCCn1c(=O)nc(NNC(C)=O)c2[nH]c(C3CCCC3)nc21 | > 270
6 | CCCCOc1cc(/C=C(\OCC)C(=O)O)ccc1CCCc1ccc(OS(=O)(=O)CCCC)c(OC)c1 | 75
7 | CC(C)(C)OC(=O)NCC[C@H]1CC[C@H](CO)CC1 | 75 to 76
8 | Cc1nc(N)nc(N)c1-c1cc(N)ccc1Cl | 117 to 121
9 | CCOC(=O)C1=C(C)NC(C)=C(C(=O)OCCN2CCN(C(c3ccc(C)cc3)c3ccc(C)cc3)CC2)C1c1ccc(C#N)cc1 (stereo not given) | 93 to 96
10 | COC(=O)c1cccc(Cl)c1NC(C)=O | 135 to 136
11 | CCN(c1nc(C)cc(C(=O)N2CCN(C)CC2)n1)c1ccc(C(C)C)cc1Br | 81 to 82
12 | Cc1nc(N2CCN(Cc3cccc(C(F)(F)F)c3)C2=O)sc1-c1cc[nH]n1 | 209 to 214
13 | CCN1CCc2ccc(Nc3ncc(Cl)c(N[C@@H]4CCCC[C@H]4NC(C)=O)n3)cc2CC1 | 248 to 250
14 | Nc1cccc2c1CC(O)CC2 (stereo not given) | 88 to 91
15 | CC=CCn1c(N(C(C)=O)c2cc(C)cc(C)c2)c(CC)c(=O)[nH]c1=O | 218 to 220
16 | COc1cc(-n2c(C#N)c3n(c2=O)CCCCC3)c(F)cc1Cl | 144 to 146
17 | Cn1c(=O)c2c(Cl)nccc2n(C)c1=O | 220
18 | CCCCCCCC/C=C\CCCCCCCC(=O)OCC1(CO)CCC(=O)O1 (stereo not given) | 38.5 to 39.5
19 | O=[N+]([O-])c1cccc(Br)c1CBr | 61.5 to 63
20 | Cc1cc(C23CC4CC(CC(C4)C2)C3)ccc1NC(=O)c1cc([N+](=O)[O-])ccc1Br | 229
21 | CC(C(N)=O)c1ccc2c(c1)Oc1ncccc1CC2=O (stereo not given) | 89 to 90
22 | COc1ccc2cc(CCc3ccc(OCC(O)CNC(C)C)cc3)n(C)c(=O)c2c1 (stereo not given) | 137 to 139
23 | CCCCCCCCCN1C(=O)N(c2ccc([N+](=O)[O-])c(C(F)(F)F)c2)C(=O)C1(C)C | 63
24 | CN1CCCC(c2cc3ccccc3c(=O)[nH]2)C1 (stereo not given) | 155 to 156
25 | C=CCOc1ccc(C#N)cc1 | 41.6

Row | SMILES | melting point [°C]
26 | COc1ccccc1OCC(O)CN1CCC(N2CCCNC2=O)CC1 (stereo not given) | 130 to 133
27 | O=C1CN(c2c(F)cc(N3C[C@H](CNC(=S)Nc4ccccn4)OC3=O)cc2F)CN1 | 194 to 196
28 | CCC(CC)c1ccc(C#N)c2nc(Oc3ccc(Cl)cc3Br)n(C)c12 | 136 to 137
29 | CCOC(=O)c1sc(SC)c2c1CCC(Br)C2=O (stereo not given) | 147 to 148
30 | CC(=O)OC1CSC(Oc2cnccc2Br)C(OC(C)=O)C1OC(C)=O (stereo not given) | 153
31 | COC(=O)C1(O)CCCC(=O)C1N=Nc1ccccc1 (stereo not given) | 144
32 | COc1cc(OC)c(S(=O)(=O)Cl)c(OC)c1 | 126 to 129
33 | C=C(C)CC(O)(C(Nc1cccc2nc(C)ncc12)c1ccc(Cl)cc1OC)C(F)(F)F (stereo not given) | 193
34 | CC12C=CC(=O)C=C1CCC1C2CCC2(C)C(=O)CCC12 (stereo not given) | 138 to 139
35 | Nc1nc2cc(Br)ccc2c2c1nc1n2CCCO1 | 273 to 276
36 | NC(=O)c1nccn1C1Cc2c(Cl)cccc2C1=O (stereo not given) | 90
37 | Cc1cc(C)c(C=C(C(=O)O)c2csc(N)n2)c(C)c1 | > 200
38 | CC(C)[Si](C)(C)CCSCCNC(=O)n1cc(F)c(=O)[nH]c1=O | 85 to 86
39 | CC(=O)Nc1ccc([N+](=O)[O-])c2c(Br)ccc(C)c12 | 216 to 217
40 | COc1ccc(C(=O)[C@H]2CC=CC[C@H]2C(=O)O)cc1F (relative stereo) | 185 to 187
41 | CC(=O)CC(=O)NC1CCCCC1 | 66 to 69
42 | CCCCCCCCCCCCNC(N)=O | 105 to 107
43 | COC(=O)c1snc(-c2cccc(C)c2)c1C(=O)OC | 53 to 54.5
44 | N#CC1=C(Nc2cc(C(F)(F)F)ccc2N)CSC1 | 189
45 | CS(=O)(=O)Nc1cc([C@@H](O)CNC2CCN(c3ccc(NC(=O)CCC4CCCC4)cc3)CC2)ccc1O | 82 to 90
46 | CCOC(=O)C(=O)Nc1ccc(OC)c(NC(=O)C(=O)OCC)c1 | 140 to 145
47 | CC(=N)NS(=O)(=O)C=Cc1ccccc1[N+](=O)[O-] | 175 to 178
48 | CCOC(=O)c1c[nH]c(=O)c2cc(Cl)ccc12 | 243
49 | O=C(Cl)N1CC(Oc2cccc(Br)c2)C1 | 87 to 88
50 | C=C(C)C(=O)OCCCc1ccc2c(c1)N(C(C)(C)C)N(O)N2 | 62 to 63.2

Further lines, results first:

Row | melting point [°C] | SMILES
51 | 138 to 140 | CCOC(=O)c1nc(NCC(c2ccccc2)c2ccccc2)c2ncn(C3CCCCO3)c2n1 (stereo not given)
52 | 130 to 135 | CN(C)CC1CCc2cc(OCc3ccc(NC(=O)Cc4ccccc4)cc3)ccc2C1 (stereo not given)
53 | 152 to 153 | CCOc1ccc2nc(SC(C)(C(=O)O)c3ccccc3)sc2c1 (stereo not given)
54 | 170 to 172 | Cc1[nH]c2ccc(F)cc2c1CCC(=O)N1CCN(c2ccccc2)CC1
55 | 147 to 150 | CC(C)OC(=O)c1ccc2c(c1)ncn2-c1cccc(-c2cccnc2Cl)c1
56 | 120 to 123 | CN1CCN(Cc2ccc(-c3cccc(-c4cncc(C#N)c4Nc4ccc5[nH]ccc5c4)c3)s2)CC1
57 | 203 to 204 | CC(=O)Nc1nc(CCN2CCC(c3c[nH]c4ccccc34)CC2)cs1
58 | 135 | CO[C@@H]1CN(Cc2ccccc2)CC[C@H]1NC(=O)c1cccc(C(F)(F)F)c1 (relative stereo)
59 | 229 to 231 | CC(C)(C)c1ccc(CBr)cc1NC(=O)CC1c2ccccc2Oc2ccccc21
60 | 87 to 89 | CC(=O)c1ccc(S(=O)(=O)NCCN(C)C)cc1
61 | 114 to 116 | N#CCCN1CCN(C(c2ccccc2)c2ccccn2)CC1 (stereo not given)
62 | 228 to 229 | Cc1nc2c3c(ccc2n1C)[C@H](O)C[C@H](c1ccccc1)O3 (relative stereo)
63 | 131 to 132 | O=C(c1ccc(Cl)c([N+](=O)[O-])c1)c1ccc(Cl)c([N+](=O)[O-])c1
64 | 282 to 286 | Cc1ccc(OC2=NS(=O)(=O)N=C(Oc3ccc(C)cc3)N2C)cc1
65 | 192 to 194 | O=C(NO)c1ccc(C(=O)NOCc2cccc3ccccc23)cc1
66 | 209 to 210 | O=c1cc(N2CCCC(CO)C2)oc2c1ccc1ccccc12 (stereo not given)
67 | 213 to 216 | O=C(O)CN1C(=O)C(=Cc2cc(OCc3ccccc3)c(OCc3ccccc3)c(OCc3ccccc3)c2)SC1=S
68 | 180 to 183 | CCCCOC(=O)NC(=O)C1c2ccccc2Oc2ccccc21
69 | 207 | O=C(c1ccc(O)cc1)c1c(-c2ccccc2)oc2ccc([N+](=O)[O-])cc12
70 | 126 to 130 | O=C(O)CC(NC(=O)C1CCCN2C(=O)CCC(NC(=O)c3ccccc3)C(=O)N12)C(=O)COC(=O)c1c(Cl)cccc1Cl (stereo not given)
71 | 222 to 223 | CCCCc1nnc(S(=O)Cc2ccc([N+](=O)[O-])cc2)n1Cc1ccc(-c2ccccc2-c2nnn[nH]2)cc1 (stereo not given)
72 | 124 to 142 | Cc1ccc(S(=O)(=O)C2CCCN(S(=O)(=O)c3ccc(C)cc3)C2)cc1 (stereo not given)
73 | 168 to 169 | O=C(CCC#Cc1ccccn1)Nc1cccc(Cl)c1
74 | 87 to 90 | COc1cc(C(=O)c2c(-c3ccc(OCCN4CCCC4)c(COCc4ccccc4)c3)sc3cc(O)ccc23)ccc1CN1CCOCC1
75 | 218 | Cc1ccc(-c2[nH]c(C(C)(C)C)nc2C(=O)Nc2nccs2)cc1

Row | melting point [°C] | SMILES
76 | 218 to 220 | O=C(Nc1ccc2cc(CN3CCCC3)cnc2c1)c1ccc(-c2ccc(F)cc2)nc1
77 | 156 to 157 | O=C(c1ccco1)C1C(=O)N(c2nccs2)c2ccccc21 (stereo not given)
78 | 165 | Cc1ccc(Cn2c(NC3CCN(CC(O)COc4ccccc4)CC3)nc3ccccc32)o1 (stereo not given)
79 | 130 | CCOC(=O)c1cnn2c(C(F)(F)F)cc(-c3ccc(C(F)(F)F)cc3)cc12
80 | 156 to 162 | CC(C)Cc1ccc(C(C)C(=O)Oc2ccc([N+](=O)[O-])cc2)cc1 (stereo not given)
81 | 234 to 235 | O=C1NCc2c(-c3ccccc3)cccc2N1c1ccccc1
82 | 104 to 106 | O=C(CCl)N(CCc1[nH]c2ccccc2c1-c1ccccc1)CC1CC1
83 | 175 to 177 | Cc1ccc(NC(N)=S)c(-c2ccccc2)c1
84 | 164 to 166 | O=C(NCCc1cccs1)c1ccc(-c2ccccc2)cc1
85 | 65 | CCCCC(Cc1cccnc1)(C(=O)NO)S(=O)(=O)c1ccc(OC)cc1 (stereo not given)
86 | 195 to 196 | CCOC(=O)C1=C(c2ccc(-n3c(C)nc4cnccc43)cc2)NC(C)=C(C(=O)OCCOC)C1c1ccccc1Cl (stereo not given)
87 | 148 to 149 | CCCOCC1(C)CCCOc2cc(C#Cc3ccc(C(=O)O)cc3)ccc21 (stereo not given)
88 | 136 to 137 | C(=C\c1nc(COc2ccc(CCn3cncn3)cc2)co1)/c1ccccc1
89 | 136 to 139 | Cc1cccc(-c2[nH]c(C(C)C)nc2-c2cccc(-c3ccc4c(c3)CCCS4=O)c2)n1 (stereo not given)
90 | 113 to 115 | c1ccc2c(c1)CCC21CCN(CCCCN2CCC3(CCc4ccccc43)CC2)CC1
91 | 144 to 146 | O=C(Nc1cccnc1)N1CCc2ccccc2CC1
92 | 108 to 109 | N#CC1=Cc2ccc(OCc3ccccc3)cc2OC1
93 | 82 to 83 | Cc1nn(C)c(SCc2ccccc2)c1[N+](=O)[O-]
94 | 78.5 to 82.5 | COc1ccc(C(=O)N(c2ccccc2)c2ccc(OCCCN(C)C)cc2)c(OC)c1
95 | 88 to 90 | COc1ccc(/C(C)=C/c2ccc(CO)cc2)cc1C(C)(C)C
96 | 95 to 96 | O=c1cnc(-c2cccc(Cc3ccccc3)c2)nn1CC(F)(F)F
97 | 79 to 82 | Cc1cn(C(C)C(=O)Nc2ccccc2)nc1-c1ccccc1 (stereo not given)
98 | 258 to 261 | CC(CO)Cn1cnc2c(N)nc3ccccc3c21 (stereo not given)
99 | 120 | COC(=O)c1ccc(OC)c(NC(=N)c2ccc(F)cc2Cl)c1
100 | 126 to 128 | CSC1C(=O)c2ccccc2N1C(=O)c1ccccc1 (stereo not given)
